Measured values taken from patent US5395611A, “Phenolic amine depigmenting and antimelanoma agents” (The Governors of the University of Alberta, priority 1992, dated 1995).
Entries after “also recorded” stand apart in the source; their conditions may differ.

Key:
melanoma = conditions: in words; cited from earlier work
[1] = acute toxicity, evaluated 100 to 1600 mg/Kg (Miura et al); cited from earlier work
follicular melanocytes = conditions: in words; cited from earlier work
black hair follicles = assay: Depigmentation of new hair (eumelanin/PTCA content); type: in vivo, C57BL/6J black mice; conditions: for Depigmentation of new growth of black hair follicles: in words; for PTCA Content / Depigmentation: 300 mg/kg daily for 14 days, hair day 22
Procedure: Female progeny were used in this testing when approximately 8 weeks old and weighing 17 grams.
Thirty mice were randomized into 6 groups of 5 (1 control and 1 for each compound). Starting on day 1, daily for 14 days the agent was injected i.p. or was infiltrated s.c. in an area where hair follicles had been plucked; the dose was 300 mg/kg body weight.
In the same 30 mice, hair follicles were harvested on day 22 (early telogen phase) and their eumelanin content analyzed. […] Briefly, a 10-mg hair sample is homogenized in water at a concentration of 10 mg/ml; the 200-μl homogenate is transferred to a screw-capped test tube, mixed with 1M H2 SO4 (800 μL) and oxidized with 3% KMnO4. The product, pyrrole-2,3,5-tricarboxylic acid (PTCA), is analyzed by HPLC with a UVL detector; samples are measured in duplicate. The eumelanin content is expressed as PTCA (ng/mg) against the PCTA content of BALB/c albino mice as control (≤10 ng/mg, the background value with our method, in which 1 ng corresponds roughly to a eumelanin content of 50 ng), and the degree of depigmentation is expressed as a percentage: (PTCA content of control sample minus PTCA content of experimental sample)/(PCTA content of control sample)×100.

[2] = test system: plasma monoamine oxidase (MAO); assay: Enzyme kinetics for monoamineoxidase (plasma MAO); type: biochemical; conditions: in words
Procedure: (§1) Mushroom tyrosinase (400 units/mg) and plasma MAO (1000 units/gm) were obtained from Sigma Chemical Co. (St. Louis, Mo., USA). A reaction mixture consisted of a substrate of 7 to 8 different concentrations (40 to 500 μM for mushroom tyrosinase and 20 to 200 μM for MAO) and of either mushroom tyrosinase (2.5 μg) or MAO (10 μg) in 1.0 mL of 0.05M sodium phosphate buffer, pH 6.8 and 7.4 respectively. The reactions were carried out at 37° C. in a shaking water bath, and stopped by taking 100 μL of the reaction mixture and adding it to 900 μL of 0.4M HCLO4. The disappearance of substrate was followed using HPLC (high pressure liquid chromatography) Km and Vmax values were calculated from the Lineweaver-Burk plots.

B16F10 melanoma colonies = assay: Melanoma-colony formation in the lungs; type: in vivo, mouse
Procedure: Murine B16F10 melanoma cell line with a strong metastatic property to form tumour colonies in the lungs was obtained from Dr. Longenecker, Department of Immunology, University of Alberta. Such cell line is well recognized and readily available as reported in Miura et al, supra. The cells were grown in T-75 flasks in dulbecco's MEM available from Gipco Lab Inc., Grand Island, N.Y., supplemented with 10% fetal calf serum, also obtained from Gipco, penicillin (100 μ/ml) and streptomycin (100 μg/ml). The cells were incubated at 37° C. in humidified atmosphere of 5% CO2 in air. […] Viable cells were identified by trypan blue dye exclusion and counted. The cell suspension was diluted to the desired concentration. […] On day zero, the mice were inoculated via the lateral tail vein with 5×10^4 cells in 0.2 ml of N saline. The test drugs were dissolved in normal saline, sterilized by membrane filtration, and administered in a dose of 300 mg/Kg (4 -S-CAP) or 900 mg/Kg (N-Ac-4-S-CAP); starting on day five, the control solution or drug was injected i.p. daily for 14 days. On day 26, the mice were killed by cervical dislocation, their lungs were removed, and the number of melanoma colonies was counted under a dissecting microscope. The results were expressed as percentage reduction in the number of colonies: [a-b/a]×100, where a=colonies in control group and b=colonies in experimental group.

melanocytes = assay: Light and electron microscopy of follicular melanocytes; type: in vivo, mice; conditions: for Cytotoxicity for follicular depigmentation: conclusion in words; for Electron microscopy of melanocytes/melanosomes: 10 days
Procedure: In […] of 4 mice (1 control and 1 for each compound) were treated daily with the control or compound injected i.p. The compounds tested were 4-S-CAP, N-Ac-4-S-CAP and α-Me-4-S-CAP. Samples of skin and regrowing hair follicles were excised under brief general anaesthesia on day 10 (late anagen phase), fixed in Karnovsky's solution (2.5% glutaraldehyde and 2.5% paraformaldehyde in 011M cacodylate buffer), and refixed in 1% osmium tetroxide in cadodylate buffer. Tissues were stained en bloc with 1.5% uranyl acetate in o.1M veronal buffer for 30 min, dehydrated in graded ethanol solutions, embedded in epoxy resin, and sectioned with a Potter-Blum ultramicrotome MT II. Sections 1.0 μm thick were stained with methylene blue for light microscopy, thin sections were stained with led citrate for electron microscopy.

B16 melanoma = assay: In vivo growth inhibition of s.c. inoculated B16 melanoma; parameters: species or system mouse
Procedure: Briefly, excised tumours were homogenized in normal saline.
The in vivo antimelanoma effect of the compounds were evaluated by percent growth inhibition of inoculated tumour (% g.i.). The percent g.i. was computed from the mean tumour volume at day 12 or 13 of the experiments; i.e., 100× (1- treated group/control group). Tumour volume was calculated by the following formula:
tumour volume=long axis×(short axis)^2 ×1/2.

in vivo = conditions: mouse
Procedure: 3:1-85 1972. In accordance with this Protocol, ten to fifteen mice were used in each test group. They were weighed and randomized at day one after s.c. inoculation of B16 melanoma cells. From day five, the phenolic melanin precursors were administered i.p. daily for nine days. The test compounds were dissolved in normal saline, and sterilized by heating to 100° C. for 2 minutes. […] They were administered j.p. with the following doses: 400 mg/Kg - 4-S-CAP; 200 to 300 mg/Kg - 4-S-CAP; and 200 to 1200 mg/Kg - N-Ac-4-S-CAP. A catalytic amount of L-dopa, 25 mg/Kg and antidecarboxylase, carbidopa, 400 mg/Kg, were also administered. Carbidopa was given one hour prior to L-dopa administration. DTIC (NSC 4538) was used as a control drug at a dose of 60 mg/Kg. Acute toxicity of 4-S-CP and 4-S-CAP was evaluated from 100 to 1600 mg/Kg.
The B16 mouse melanoma was maintained by s.c. inoculation of tumour cells into the back of C57BL7J mice (5 to 6 weeks, female). […] Briefly, excised tumours were homogenized in normal saline. The homogenized tumour cells were then passed through a sterile 80 mesh stainless steel screen, washed with normal saline, centrifuged (500 g. for 10 minutes) and resuspended in normal saline. Suspensions of viable melanoma cells at the concentration of 1×10^6 per 0.1 ml were inoculated s.c. into both the right and left inguinal areas of C57BL/6J mice (female, 5 to 6 weeks old, 18 to 20 gm).

[3] = Urinary excretion after i.p. injection (metabolic assay); type: in vivo, mice
Procedure: Fifteen mice randomly divided into three groups of five were injected i.p. with a test agent (300 mg/kg) dissolved in N saline solution. Group 1 were injected with 4-S-CAP, group 2 with N-Ac-4-S-CAP, group 3 were controls. The mice are kept in metabolic cages; their urine is collected 3, 8 and 24 hr after injection, and the 4-S-CAP and N-Ac-4-S-CAP content is measured by HPLC in a system consisting of a Waters 600E liquid chromatography, with a Bondapak C18 column (3.0×300 mm; particle size, 10 μm) and a Waters 460 electrochemical detector. Mobile phase: 0.1M potassium phosphate buffer, pH 2.1, containing 0.1 mM Na2 EDTA methanol, 80:20 (v/v); column temperature, 60° C.; flow rate 1.0 ml/min. Urine samples are hydrolysed with 0.1M HCl before assay, and the phenols are detected at 850 mV against an Ag/AgCl reference electrode.

mushroom tyrosinase = assay: Enzyme kinetics for tyrosinase; type: biochemical; conditions: in words
Procedure: as §1
^a mushroom tyrosinase; 11 unit/ml of tyrosinase was used. One enzyme
unit will cause an increase in A280 of 0.001 per min at pH 6.8 at
25° C. using Ltyrosine as substrate.

[4] = hydroquinone preparations; cited from earlier work
skin = conditions: cited from earlier work

## NC(CSc1ccc(O)cc1)C(=O)O (stereo not drawn) [4-S-CP, 4-S-cysteinylphenol]
melanoma
  Inhibition of melanoma growth: some inhibition of melanoma growth, although not as active as the 4-S-CAP
[1]
  Lethal dose: 600 mg/kg
Follicular melanocytes
  Effect on black hair follicles / black hair: depigmentation of black hair as manifested by loss of functioning melanocytes

## NCCCSc1ccc(O)cc1 [4-S-HomoCAP]
Black hair follicles
  Depigmentation of new growth of black hair follicles: much more depigmentation when given s.c. than i.p.
Black hair follicles; s.c.
  PTCA Content: 397.7 ± 279.3 ng/mg

## CN(C)CCSc1ccc(O)cc1 [N,N-DiMe-4-S-CAP]
Black hair follicles; i.p.
  Depigmentation: 7.3%
  PTCA Content: 1009.0 ± 193.5 ng/mg
Black hair follicles
  Depigmentation of new growth of black hair follicles: the lowest; also recorded: no significant depigmentation
Black hair follicles; listed as N,N-Di-Me-4-S-CAP
  Depigmentation of new growth of black hair follicles: no visible changes in pigmentation in new follicles
Black hair follicles; s.c.
  Depigmentation: 6.1%
  PTCA Content: 1023.4 ± 110.1 ng/mg

## CC(=O)NCCSc1ccc(O)cc1 [N-Ac-4-S-CAP, N-ACETYL-4-S-CYSTEAMINYLPHENOL]
[2]
  Substrate for plasma MAO: not, however, a substrate for plasma MAO
B16F10 melanoma colonies; 900 mg/kg i.p. daily for 14 days, day 26
  Colonies, % control: 24.9%
B16F10 melanoma colonies; in words
  Number of B16F10 melanoma colonies: significantly reduced
B16F10 melanoma colonies; summary statement
  Melanoma lung colonies reduced to % of original volume: 25%
melanocytes
  Cytotoxicity for follicular depigmentation: greatest cytotoxicity for follicular depigmentation
melanocytes; i.p.
  Electron microscopy of melanocytes/melanosomes: no melanocytes or melanosomes were visible
melanocytes; i.p., day 10
  Light microscopy of hair follicles: neither functioning melanocytes nor melanin pigments remained in the follicles
B16 melanoma; Experiment I, 200 mg/Kg
  % Gi (growth inhibition): 39.8%
B16 melanoma; Experiment I, 400 mg/Kg
  % Gi (growth inhibition): 57.3%
B16 melanoma; Experiment I, 600 mg/Kg
  % Gi (growth inhibition): 63.18%
B16 melanoma; Experiment I, 800 mg/Kg
  % Gi (growth inhibition): 74.4%
B16 melanoma; Experiment II, 200 mg/Kg
  % Gi (growth inhibition): 32.0%
  Tumour Volume: 370 ± 37 mm^3
B16 melanoma; Experiment II, 400 mg/Kg
  % Gi (growth inhibition): 34.0%
B16 melanoma; Experiment II, 800 mg/Kg
  % Gi (growth inhibition): 63.4%
B16 melanoma; Experiment II, 1200 mg/Kg
  % Gi (growth inhibition): 70.7%
B16 melanoma; in words
  Growth inhibition of B16 melanoma: dose-dependent linear growth inhibition; also recorded: significant reduction in size of s.c. inoculated melanoma
In vivo
  Single dose toxicity level: ~1,400 mg/kg of body weight
In vivo; ip
  LD50: ≤ 1400 mg/kg
  MTD: 1200 mg/kg
Black hair follicles
  Depigmentation of new growth of black hair follicles: most marked; also recorded: no statistically significant difference in melanin content between hair follicles with N-Ac-4-S-CAP and control albino mice
[3]; 3 h after i.p. injection, 5.2 mg/mouse, unit printed ng
  Urinary excretion of unchanged compound, amount: 7.23e-07 ± 2.7e-08 mg
[3]; 8 h after i.p. injection, 5.2 mg/mouse
  Urinary excretion of unchanged compound, amount: 1.034 ± 0.033 mg
[3]; 24 h after i.p. injection, 5.2 mg/mouse
  Urinary excretion of unchanged compound, amount: 1.089 ± 0.028 mg
[3]; urine, i.p. injection
  i.p. dose excreted as 4-S-CAP, amount: 0.066 ± 0.003 mg
[3]; urine, ip, 300 mg/kg, 3 h after i.p. injection, 5.2 mg/mouse, read-out: Urinary excretion of unchanged compound, % of dose
  dose excreted at 3 h: 13.9%
[3]; urine, ip, 300 mg/kg, 8 h after i.p. injection, 5.2 mg/mouse, read-out: Urinary excretion of unchanged compound, % of dose
  dose excreted at 8 h: 19.8%
[3]; urine, ip, 300 mg/kg, 24 h after i.p. injection, 5.2 mg/mouse, read-out: Urinary excretion of unchanged compound, % of dose
  dose excreted at 24 h: 20.4%
Mushroom tyrosinase
  Substrate for tyrosinase: tyrosinase substrate

## Oc1ccc(O)cc1 [hydroquinone]
[4]
  Stability: very unstable
skin; hydroquinone preparations
  Skin irritation: cause skin irritation
skin; prolonged period and high concentration
  Permanent whitening of the skin: can also cause permanent whitening of the skin

## COC(=O)C(N)CSc1ccc(O)cc1 (stereo not drawn) [methyl ester of 4-S-CP]
melanoma
  Inhibition of melanoma growth: some inhibition of melanoma growth, although not as active as the 4-S-CAP

## CC(N)CSc1ccc(O)cc1 (stereo not drawn) [α-Me-4-S-CAP]
melanocytes
  Cytotoxicity for follicular depigmentation: greatest cytotoxicity for follicular depigmentation
melanocytes; i.p.
  Electron microscopy of melanocytes/melanosomes: contained immature melanosomes at stages II and III
In vivo
  Single dose toxicity level: ~500 mg/kg of body weight
Black hair follicles; i.p., 300 mg/kg
  Depigmentation: 89%
Black hair follicles
  Depigmentation of new growth of black hair follicles: i.p. administration induced more depigmentation than s.c.
Black hair follicles; s.c. administration, plucked area
  Irritation of the skin: some irritation of the skin in the plucked area
Black hair follicles; s.c., 300 mg/kg
  Depigmentation: 58%
